Source: patent US7008786B2, “Microorganism producing L-lysine and processes for producing L-lysine using the same” (priority 2000, dated 2006)

Tests used:
[1] = test system: Corynebacterium glutamicum CH77; assay: Resistance to monensin: growth on minimal agar plate medium containing monensin; assay type: cell-based; settings: Monensin 7,000 μg/l, 4 days, parent strain CH77
Procedure: (§1) The parent CH77 strain and the mutant CJM107 strain were tested for their resistance to monensin by the following method. Cells were grown in a Luria-Bertani (LB) liquid medium for 16 hours. Then, the cells were washed twice with a sterilized physiological saline and then, appropriately diluted and cultivated on a minimal agar plate medium [glucose 10 g, (NH4)2SO4 2 g, urea 2 g, KH2PO4 1 g, K2HPO4 3 g, MgSO4.7H2O 0.5 g, FeSO4.7H2O 10 mg, MnSO4.7H2O 10 mg, biotin 100 μg, Thiamin.HCl 100 μg, CaCl2.2H2O 100 μg, Na2B4O7.10H2O 80 μg, (NH4)6MoO27.4H2O 40 μg, ZnSO4.7H2O 10 μg, CuSO4.7H2O 10 μg, MnCl2.4H2O 10 μg, FeCl3.6H2O 1 mg, agar 20 g, if necessary L-leucine 0.1 g, if necessary L-threonine 0.1 g, if necessary L-methionine 0.1 g, per distilled water of 11 (pH 7.0)] containing monensin of 7,000 μg/1 for 4 days.

[2] = test system: Corynebacterium glutamicum CJM107; assay: as above; assay type: cell-based; settings: Monensin 7,000 μg/l, 4 days, mutant strain CJM107
Procedure: as §1

CC[C@@]1([C@@H]2O[C@@H]([C@H]3O[C@@](O)(CO)[C@H](C)C[C@@H]3C)C[C@@H]2C)CC[C@H]([C@]2(C)CC[C@]3(C[C@H](O)[C@@H](C)[C@@H]([C@@H](C)[C@@H](OC)[C@H](C)C(=O)O)O3)O2)O1 [Monensin, monensin]
Growth of CH77 in the presence of monensin [1]: −
Growth of CJM107 in the presence of monensin [2]: +++
